Where “and” joins values, the source holds several entries; their conditions need not be identical. Equal values may be shown once. Inconclusive results and toxic doses are left out. Cut-off read from the data, not from the text of the source: active = T/C of 150% or more; inactive = T/C below 125%.
System: L1210 leukemia ip in BDF1 mice, survival T/C
Assay: NCI In Vivo Anticancer Drug Screen. Data for tumor model L1210 Leukemia (intraperitoneal) in B6D2F1 (BDF1) mice
Conditions: endpoint: mean survival time, higher = longer survival
Summary of the method: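 Read-out is survival time, reported as the treated-group measurement over the vehicle-control measurement.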

[1] = dose: 100.0 mg/kg/injection, schedule: Q01DX001 (ip), vehicle: other
[2] = dose: 200.0 mg/kg/injection, schedule: Q01DX001 (ip), vehicle: other
[3] = dose: 400.0 mg/kg/injection, schedule: Q01DX001 (ip), vehicle: other
[4] = dose: 25.0 mg/kg/injection, schedule: Q01DX009 (ip), vehicle: water
[5] = dose: 50.0 mg/kg/injection, schedule: Q01DX009 (ip), vehicle: water
[6] = dose: 200.0 mg/kg/injection, schedule: Q01DX001 (ip), vehicle: carboxymethylcellulose (CMC)
[7] = dose: 400.0 mg/kg/injection, schedule: Q01DX001 (ip), vehicle: carboxymethylcellulose (CMC)
[8] = dose: 100.0 mg/kg/injection, schedule: Q01DX001 (ip), vehicle: carboxymethylcellulose (CMC)

Measured: T/C

CSc1nc(N)c(N)c(SC)n1
inactive: dose: 16.0 mg/kg/injection, schedule: Q01DX Z (ip), vehicle: methylcellulose (MC) 91 % of control | dose: 31.0 mg/kg/injection, schedule: Q01DX Z (ip), vehicle: methylcellulose (MC) 93 % of control | dose: 62.0 mg/kg/injection, schedule: Q01DX Z (ip), vehicle: methylcellulose (MC) 96 % of control | [1] 102 % of control | dose: 100.0 mg/kg/injection, schedule: Q04DX003 (ip), vehicle: other 94 % of control | dose: 125.0 mg/kg/injection, schedule: Q01DX Z (ip), vehicle: methylcellulose (MC) 93 % of control | [2] 101 % of control | dose: 200.0 mg/kg/injection, schedule: Q04DX003 (ip), vehicle: other 96 % of control | [3] 96 % of control | dose: 400.0 mg/kg/injection, schedule: Q04DX003 (ip), vehicle: other 102 % of control

NS(=O)(=O)c1ccccc1
inactive: dose: 100.0 mg/kg/injection, schedule: Q04DX002 (ip), vehicle: saline 105 % of control | dose: 100.0 mg/kg/injection, schedule: Q04DX003 (ip), vehicle: Klucel (hydroxypropylcellulose) (HPC) 101 % of control | dose: 200.0 mg/kg/injection, schedule: Q04DX002 (ip), vehicle: saline 105 % of control | dose: 200.0 mg/kg/injection, schedule: Q04DX003 (ip), vehicle: Klucel (hydroxypropylcellulose) (HPC) 103 % of control | dose: 400.0 mg/kg/injection, schedule: Q04DX002 (ip), vehicle: saline 109 % of control | dose: 400.0 mg/kg/injection, schedule: Q04DX003 (ip), vehicle: Klucel (hydroxypropylcellulose) (HPC) 92 % of control

CCCCC/C(=N/NC(N)=O)C(OC)OC
inactive: [1] 92 % of control | [2] 92 % of control | [3] 97 % of control

CC(=O)NNC(=O)c1cnccn1
inactive: dose: 6.25 mg/kg/injection, schedule: Q04DX003 (ip), vehicle: saline 100 % of control | dose: 12.5 mg/kg/injection, schedule: Q04DX003 (ip), vehicle: saline 97 % of control | dose: 24.0 mg/kg/injection, schedule: Q04DX003 (ip), vehicle: saline 97 % of control | [4] 95 % of control and 98 % of control | dose: 48.0 mg/kg/injection, schedule: Q04DX003 (ip), vehicle: saline 102 % of control | [5] 97 % of control and 102 % of control | dose: 100.0 mg/kg/injection, schedule: Q01DX009 (ip), vehicle: water 112 % of control and 123 % of control | dose: 200.0 mg/kg/injection, schedule: Q01DX001 (ip), vehicle: water 103 % of control | dose: 200.0 mg/kg/injection, schedule: Q01DX009 (ip), vehicle: water 116 % of control and 118 % of control

CCCC/C(COC)=N\N=C(\CCOC)COC
inactive: [6] 94 % of control | [7] 94 % of control

CN(C)Cc1cccc(N)c1
inactive: dose: 12.5 mg/kg/injection, schedule: Q01DX009 (ip), vehicle: water 102 % of control | [4] 100 % of control | dose: 25.0 mg/kg/injection, schedule: Q04DX003 (ip), vehicle: water 104 % of control | [5] 100 % of control | dose: 50.0 mg/kg/injection, schedule: Q04DX003 (ip), vehicle: water 95 % of control | dose: 100.0 mg/kg/injection, schedule: Q04DX003 (ip), vehicle: water 96 % of control and 102 % of control

Cc1c2oc3c(C)c(N)cc(C(=O)NC4C(=O)NC(C(C)C)C(=O)N5CCCC5C(=O)N(C)CC(=O)N(C)C(C(C)C)C(=O)OC4C)c3nc-2c(C(=O)NC2C(=O)NC(C(C)C)C(=O)N3CCCC3C(=O)N(C)CC(=O)N(C)C(C(C)C)C(=O)OC2C)c(N)c1=O (centres undefined)
inactive: dose: 75.0 micrograms/kg/injection, schedule: Q01DX009 (ip), vehicle: saline + alcohol 121 % of control | dose: 150.0 micrograms/kg/injection, schedule: Q01DX009 (ip), vehicle: saline + alcohol 113 % of control | dose: 200.0 micrograms/kg/injection, schedule: Q01DX009 (ip), vehicle: saline + alcohol 102 % of control | dose: 300.0 micrograms/kg/injection, schedule: Q01DX009 (ip), vehicle: saline + alcohol 90 % of control | dose: 300.0 micrograms/kg/injection, schedule: Q04DX003 (ip), vehicle: saline + alcohol 119 % of control | dose: 800.0 micrograms/kg/injection, schedule: Q04DX003 (ip), vehicle: saline + alcohol 106 % of control | dose: 1200.0 micrograms/kg/injection, schedule: Q04DX003 (ip), vehicle: saline + alcohol 87 % of control

CC(=O)NCCO
inactive: dose: 100.0 mg/kg/injection, schedule: Q01DX001 (ip), vehicle: saline with Tween-80 100 % of control | dose: 200.0 mg/kg/injection, schedule: Q01DX001 (ip), vehicle: saline with Tween-80 105 % of control | dose: 400.0 mg/kg/injection, schedule: Q01DX001 (ip), vehicle: saline with Tween-80 100 % of control

O=C1/C(=C/c2ccccc2)SC(=S)N1C1OC(CO)C(O)C(O)C1O (centres undefined)
inactive: dose: 12.5 mg/kg/injection, schedule: Q01DX005 (ip), vehicle: other 98 % of control | dose: 25.0 mg/kg/injection, schedule: Q01DX005 (ip), vehicle: other 98 % of control | dose: 50.0 mg/kg/injection, schedule: Q01DX005 (ip), vehicle: other 106 % of control | dose: 100.0 mg/kg/injection, schedule: Q01DX005 (ip), vehicle: other 101 % of control | dose: 200.0 mg/kg/injection, schedule: Q01DX005 (ip), vehicle: other 98 % of control

CN(N=O)C(=O)NC1CC2CCC1C2 (centres undefined)
inactive: dose: 4.0 mg/kg/injection, schedule: Q01DX001 (ip), vehicle: other 104 % of control | dose: 8.0 mg/kg/injection, schedule: Q01DX001 (ip), vehicle: other 104 % of control | dose: 16.0 mg/kg/injection, schedule: Q01DX001 (ip), vehicle: other 108 % of control | dose: 31.0 mg/kg/injection, schedule: Q01DX001 (ip), vehicle: other 104 % of control | dose: 62.0 mg/kg/injection, schedule: Q01DX001 (ip), vehicle: other 100 % of control | dose: 125.0 mg/kg/injection, schedule: Q01DX001 (ip), vehicle: other 104 % of control | dose: 250.0 mg/kg/injection, schedule: Q01DX001 (ip), vehicle: other 112 % of control | dose: 375.0 mg/kg/injection, schedule: Q01DX001 (ip), vehicle: other 112 % of control | dose: 500.0 mg/kg/injection, schedule: Q01DX001 (ip), vehicle: other 118 % of control

O=C(Nc1ccc(F)cc1)Oc1ccc2ccccc2c1
inactive: [8] 103 % of control | dose: 100.0 mg/kg/injection, schedule: Q01DX009 (ip), vehicle: carboxymethylcellulose (CMC) 95 % of control and 97 % of control | dose: 100.0 mg/kg/injection, schedule: Q04DX002 (ip), vehicle: carboxymethylcellulose (CMC) 92 % of control and 98 % of control | [6] 94 % of control | dose: 200.0 mg/kg/injection, schedule: Q01DX009 (ip), vehicle: carboxymethylcellulose (CMC) 102 % of control and 90 % of control | dose: 200.0 mg/kg/injection, schedule: Q04DX002 (ip), vehicle: carboxymethylcellulose (CMC) 92 % of control and 102 % of control | [7] 97 % of control | dose: 400.0 mg/kg/injection, schedule: Q01DX009 (ip), vehicle: carboxymethylcellulose (CMC) 94 % of control and 90 % of control | dose: 400.0 mg/kg/injection, schedule: Q04DX002 (ip), vehicle: carboxymethylcellulose (CMC) 93 % of control

CCCC(O)CN (centres undefined)
inactive: dose: 50.0 mg/kg/injection, schedule: Q01DX001 (ip), vehicle: carboxymethylcellulose (CMC) 98 % of control | [8] 102 % of control | [6] 104 % of control | [7] 116 % of control

COC(=O)CNC(=O)C(Cc1ccc(OCc2ccccc2)cc1)NC(=O)OC(C)(C)C (centres undefined)
inactive: dose: 100.0 mg/kg/injection, schedule: Q01DX009 (ip), vehicle: saline 98 % of control | dose: 100.0 mg/kg/injection, schedule: Q04DX003 (ip), vehicle: saline 93 % of control | dose: 200.0 mg/kg/injection, schedule: Q01DX009 (ip), vehicle: saline 106 % of control | dose: 200.0 mg/kg/injection, schedule: Q04DX003 (ip), vehicle: saline 97 % of control | dose: 400.0 mg/kg/injection, schedule: Q01DX009 (ip), vehicle: saline 96 % of control | dose: 400.0 mg/kg/injection, schedule: Q04DX003 (ip), vehicle: saline 97 % of control
